Measured values taken from ChEMBL document CHEMBL3822409, “Synthesis and antitubercular activity of new 1,3,4-oxadiazoles bearing pyridyl and thiazolyl scaffolds” (Bioorg Med Chem Lett, 2016).
In brackets after ≈: the same amount, converted by molar mass.

Columns and labels:
[1] = Selectivity index, ratio of CC50 for human PANC1 cells to MIC for active stage of Mycobacterium bovis BCG ATCC 35734; type: toxicity, cell-based, PANC-1; settings: read-out: Selectivity Index
[2] = Cytotoxicity against human HeLa cells by MTT assay; type: cell-based
[3] = Cytotoxicity against human PANC1 cells by MTT assay; type: cell-based, PANC-1
[4] = Selectivity index, ratio of CC50 for human HeLa cells to MIC for active stage of Mycobacterium bovis BCG ATCC 35734; type: toxicity, cell-based; settings: read-out: Selectivity Index
[5] = Selectivity index, ratio of CC50 for human THP1 cells to MIC for active stage of Mycobacterium bovis BCG ATCC 35734; type: toxicity, cell-based, THP-1; settings: read-out: Selectivity Index
[6] = Cytotoxicity against human THP1 cells by MTT assay; type: cell-based, THP-1
[7] = Selectivity index, ratio of CC50 for human HCT116 cells to MIC for active stage of Mycobacterium bovis BCG ATCC 35734; type: toxicity, cell-based, HCT-116; settings: read-out: Selectivity Index
[8] = Selectivity index, ratio of CC50 for human THP1 cells to MIC for dormant stage of Mycobacterium bovis BCG ATCC 35734; type: toxicity, cell-based, THP-1; settings: read-out: Selectivity Index
[9] = Selectivity index, ratio of CC50 for human HCT116 cells to MIC for dormant stage of Mycobacterium bovis BCG ATCC 35734; type: toxicity, cell-based, HCT-116; settings: read-out: Selectivity Index
[10] = Selectivity index, ratio of CC50 for human PANC1 cells to MIC for dormant stage of Mycobacterium bovis BCG ATCC 35734; type: toxicity, cell-based, PANC-1; settings: read-out: Selectivity Index
[11] = Selectivity index, ratio of CC50 for human HeLa cells to MIC for dormant stage of Mycobacterium bovis BCG ATCC 35734; type: toxicity, cell-based; settings: read-out: Selectivity Index
[12] = Cytotoxicity against human HCT116 cells by MTT assay; type: cell-based, HCT-116
[13] = test system: Mycobacterium tuberculosis; test: Antimycobacterial activity against dormant stage of Mycobacterium tuberculosis H37Ra ATCC 25177 measured on day 12 by XTT reduction menadione assay; type: functional, organism-based; settings: H37Ra ATCC 25177, 288 h
[14] = test system: Mycobacterium tuberculosis; test: Antimycobacterial activity against active stage of Mycobacterium tuberculosis H37Ra ATCC 25177 measured on day 8 by XTT reduction menadione assay; type: functional, organism-based; settings: H37Ra ATCC 25177, 192 h

Compound | selectivity ratio [1] | CC50 [2] [µg/mL] | CC50 [3] [µg/mL] | selectivity ratio [4] | selectivity ratio [5] | CC50 [6] [µg/mL] | selectivity ratio [7] | selectivity ratio [8] | selectivity ratio [9] | selectivity ratio [10] | selectivity ratio [11] | CC50 [12] [µg/mL] | IC50 [13] [µg/mL] | MIC [13] [µg/mL] | IC50 [14] [µg/mL] | MIC [14] [µg/mL]
Cc1nc(-c2cccnc2)sc1-c1nnc(-c2ccc(Br)cc2)o1 | 3 | > 100 | > 100 | 3 | 3 | > 100 | 3 | 3 | 3 | 3 | 3 | > 100 | > 30 | > 30 | > 30 | > 30
COc1ccccc1-c1nnc(-c2sc(-c3cccnc3)nc2C)o1 | 38 | > 100 | > 100 | 38 | 38 | > 100 | 38 | 25 | 25 | 25 | 25 | > 100 | > 30 | > 30 | > 30 | > 30
Cc1nc(-c2cccnc2)sc1-c1nnc(-c2ccc([N+](=O)[O-])cc2)o1 | 3 | > 100 | > 100 | 3 | 3 | > 100 | 3 | 3 | 3 | 3 | 3 | > 100 | > 30 | > 30 | > 30 | > 30
CC(=O)O[C@H]1C(=O)[C@@]2(C)[C@H]([C@H](OC(=O)c3ccccc3)[C@]3(O)C[C@H](OC(=O)[C@H](O)[C@@H](NC(=O)c4ccccc4)c4ccccc4)C(C)=C1C3(C)C)[C@]1(OC(C)=O)CO[C@@H]1C[C@@H]2O [PACLITAXEL] |  | 0.0048 (≈ 0.00562 µM) | 0.128 (≈ 0.15 µM) |  |  | 0.137 (≈ 0.161 µM) |  |  |  |  |  | 1.85 (≈ 2.17 µM) |  |  |  | 
Cc1ccc(-c2nnc(-c3sc(-c4cccnc4)nc3C)o2)cc1 | 3 | > 100 | > 100 | 3 | 3 | > 100 | 3 | 3 | 3 | 3 | 3 | > 100 | > 30 | > 30 | > 30 | > 30
Cc1nc(-c2cccnc2)sc1-c1nnc(-c2ccccc2[N+](=O)[O-])o1 | 39 | > 100 | > 100 | 39 | 39 | > 100 | 39 | 17 | 17 | 17 | 17 | > 100 | > 30 | > 30 | > 30 | > 30
Cc1ccccc1-c1nnc(-c2sc(-c3cccnc3)nc2C)o1 | 17 | > 100 | > 100 | 17 | 17 | > 100 | 17 | 20 | 20 | 20 | 20 | > 100 | > 30 | > 30 | > 30 | > 30
Cc1nc(-c2cccnc2)sc1-c1nnc(-c2ccc(Cl)cc2)o1 | 3 | > 100 | > 100 | 3 | 3 | > 100 | 3 | 3 | 3 | 3 | 3 | > 100 | > 30 | > 30 | > 30 | > 30
Cc1cccc(-c2nnc(-c3sc(-c4cccnc4)nc3C)o2)c1 | 3 | > 100 | > 100 | 3 | 3 | > 100 | 3 | 3 | 3 | 3 | 3 | > 100 | > 30 | > 30 | > 30 | > 30
Cc1nc(-c2cccnc2)sc1-c1nnc(-c2ccccc2Cl)o1 | 19 | > 100 | > 100 | 19 | 19 | > 100 | 19 | 21 | 21 | 21 | 21 | > 100 | > 30 | > 30 | > 30 | > 30
Cc1nc(-c2cccnc2)sc1-c1nnc(-c2ccccc2)o1 | 3 | > 100 | > 100 | 3 | 3 | > 100 | 3 | 3 | 3 | 3 | 3 | > 100 | > 30 | > 30 | > 30 | > 30
Cc1nc(-c2cccnc2)sc1-c1nnc(-c2cccc(Cl)c2Cl)o1 | 3 | > 100 | > 100 | 3 | 3 | > 100 | 3 | 3 | 3 | 3 | 3 | > 100 | > 30 | > 30 | > 30 | > 30
Cc1nc(-c2cccnc2)sc1-c1nnc(-c2ccncc2)o1 | 2 | > 100 | > 100 | 2 | 2 | > 100 | 2 | 2 | 2 | 2 | 2 | > 100 | > 30 | > 30 | > 30 | > 30
Cc1nc(-c2cccnc2)sc1-c1nnc(Cc2ccccc2)o1 | 9 | > 100 | > 100 | 9 | 9 | > 100 | 9 | 10 | 10 | 10 | 10 | > 100 | > 30 | > 30 | > 30 | > 30
Cc1nc(-c2cccnc2)sc1-c1nnc(-c2cccnc2)o1 | 2 | > 100 | > 100 | 2 | 2 | > 100 | 2 | 1 | 1 | 1 | 1 | > 100 | > 30 | > 30 | > 30 | > 30
Cc1nc(-c2cccnc2)sc1-c1nnc(-c2ccc(O)cc2)o1 | 3 | > 100 | > 100 | 3 | 3 | > 100 | 3 | 3 | 3 | 3 | 3 | > 100 | > 30 | > 30 | > 30 | > 30
CO[C@H]1/C=C/O[C@@]2(C)Oc3c(C)c(O)c4c(O)c(c(/C=N/N5CCN(C)CC5)c(O)c4c3C2=O)NC(=O)/C(C)=C\C=C\[C@H](C)[C@H](O)[C@@H](C)[C@@H](O)[C@@H](C)[C@H](OC(C)=O)[C@@H]1C [RIFAMPIN] | 1250 | > 100 | > 100 | 1250 | 1250 | > 100 | 1250 | 714 | 714 | 714 | 714 | > 100 | 0.0024 (≈ 0.00292 µM) | 0.03 (≈ 0.0365 µM) |  | 0.02 (≈ 0.0243 µM)
